Tests used:
Assay type in all cases: biochemical
PAD1 = target: T1, PAD1 (Homo sapiens, UniProt Q9ULC6); experiment: Inactivation kinetics, PAD1; conditions: for kinact/KI: a: single kobs determined, b: from a linear fit; for Fold PAD1 Selectivity: kinact/KI relative to least inhibited isozyme (1.0)
T1 construct: made in house
T1 sequence (Q9ULC6 1-663): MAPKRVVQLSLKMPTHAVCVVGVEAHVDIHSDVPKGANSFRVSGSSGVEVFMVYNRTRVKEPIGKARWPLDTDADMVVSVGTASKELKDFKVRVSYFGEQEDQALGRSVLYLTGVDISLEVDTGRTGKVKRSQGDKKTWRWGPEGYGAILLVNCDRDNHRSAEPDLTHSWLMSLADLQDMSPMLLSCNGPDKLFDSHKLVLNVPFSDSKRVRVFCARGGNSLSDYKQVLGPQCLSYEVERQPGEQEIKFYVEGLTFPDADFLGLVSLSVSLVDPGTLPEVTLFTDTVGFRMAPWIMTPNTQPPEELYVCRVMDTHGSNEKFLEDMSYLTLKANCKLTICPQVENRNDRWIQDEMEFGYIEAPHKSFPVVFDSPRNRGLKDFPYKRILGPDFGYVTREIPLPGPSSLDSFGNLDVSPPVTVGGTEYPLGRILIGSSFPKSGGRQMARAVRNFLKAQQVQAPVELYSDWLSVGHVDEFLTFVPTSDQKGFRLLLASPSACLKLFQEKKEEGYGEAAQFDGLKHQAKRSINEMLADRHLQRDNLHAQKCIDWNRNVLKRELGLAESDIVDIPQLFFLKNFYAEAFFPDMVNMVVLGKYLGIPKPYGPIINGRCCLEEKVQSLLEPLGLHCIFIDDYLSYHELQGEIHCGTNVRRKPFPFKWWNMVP
Method in brief: (§1)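 PAD1, 2 or 4 (2.0 μM) or PAD3 (5.0 μM) preincubated at 37 °C with varying inhibitor in 50 mM HEPES, 10 mM CaCl2, 2 mM DTT, pH 7.6. Timed aliquots assayed 15 min with 10 mM BAEE (BAA for PAD3); citrulline quantified by COLDER.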

PAD2 = target: T2, PAD2 (Homo sapiens, UniProt Q9Y2J8); experiment: Inactivation kinetics, PAD2; conditions: for kinact/KI: a: single kobs determined, b: from a linear fit, other footnotes: from kinact and KI; for Fold PAD2 Selectivity: kinact/KI relative to least inhibited isozyme (1.0); for Ki / kinact: PAD2, table footnote
T2 construct: made in house
Method in brief: as §1

PAD3 = target: T3, PAD3 (Homo sapiens, UniProt Q9ULW8); experiment: Inactivation kinetics, PAD3; conditions: for kinact/KI: a: single kobs determined; for Fold PAD3 Selectivity: kinact/KI relative to least inhibited isozyme (1.0)
T3 construct: made in house
T3 sequence (Q9ULW8 1-664): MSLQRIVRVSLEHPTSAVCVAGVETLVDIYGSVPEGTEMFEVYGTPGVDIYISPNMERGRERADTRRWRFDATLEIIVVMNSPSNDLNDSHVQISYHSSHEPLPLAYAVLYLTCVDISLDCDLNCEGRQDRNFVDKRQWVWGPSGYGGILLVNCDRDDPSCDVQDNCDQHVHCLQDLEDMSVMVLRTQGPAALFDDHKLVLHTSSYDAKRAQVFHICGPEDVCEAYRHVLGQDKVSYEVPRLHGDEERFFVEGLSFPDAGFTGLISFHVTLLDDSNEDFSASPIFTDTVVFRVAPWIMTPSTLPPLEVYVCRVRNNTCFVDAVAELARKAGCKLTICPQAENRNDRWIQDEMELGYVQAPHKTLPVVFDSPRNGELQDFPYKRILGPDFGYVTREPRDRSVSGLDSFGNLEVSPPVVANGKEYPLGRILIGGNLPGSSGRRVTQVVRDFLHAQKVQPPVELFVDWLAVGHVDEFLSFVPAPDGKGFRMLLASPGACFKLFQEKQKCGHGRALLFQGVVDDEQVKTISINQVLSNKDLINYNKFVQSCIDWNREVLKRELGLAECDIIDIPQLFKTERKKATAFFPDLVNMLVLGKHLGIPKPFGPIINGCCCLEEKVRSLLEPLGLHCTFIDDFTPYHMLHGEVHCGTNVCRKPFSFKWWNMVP
Method in brief: as §1

PAD4 = target: T4, PAD4 (Homo sapiens, UniProt Q9UM07); experiment: Inactivation kinetics, PAD4; conditions: for kinact/KI: a: single kobs determined, b: from a linear fit; for Fold PAD4 Selectivity: kinact/KI relative to least inhibited isozyme (1.0)
T4 construct: made in house
Method in brief: as §1

T4 sequence (Q9UM07 whole entry): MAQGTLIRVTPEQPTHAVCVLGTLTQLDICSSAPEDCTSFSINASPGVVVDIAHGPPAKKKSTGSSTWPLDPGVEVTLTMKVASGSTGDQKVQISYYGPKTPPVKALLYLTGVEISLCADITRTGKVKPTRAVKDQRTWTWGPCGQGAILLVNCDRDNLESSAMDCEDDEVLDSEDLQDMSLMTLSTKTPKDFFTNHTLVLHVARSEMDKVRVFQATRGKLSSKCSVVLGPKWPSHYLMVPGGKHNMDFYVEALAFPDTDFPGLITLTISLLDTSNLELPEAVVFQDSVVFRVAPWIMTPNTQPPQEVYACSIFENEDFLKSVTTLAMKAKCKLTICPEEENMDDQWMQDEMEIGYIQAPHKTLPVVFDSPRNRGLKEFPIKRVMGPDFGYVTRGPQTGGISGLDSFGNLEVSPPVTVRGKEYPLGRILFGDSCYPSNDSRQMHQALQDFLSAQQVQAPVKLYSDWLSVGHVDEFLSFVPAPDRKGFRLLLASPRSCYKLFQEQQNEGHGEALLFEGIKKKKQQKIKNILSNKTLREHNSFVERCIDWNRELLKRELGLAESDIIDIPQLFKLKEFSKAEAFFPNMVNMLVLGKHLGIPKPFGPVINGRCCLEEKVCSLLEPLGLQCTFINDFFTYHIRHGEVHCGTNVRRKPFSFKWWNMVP
T2 sequence (Q9Y2J8 whole entry): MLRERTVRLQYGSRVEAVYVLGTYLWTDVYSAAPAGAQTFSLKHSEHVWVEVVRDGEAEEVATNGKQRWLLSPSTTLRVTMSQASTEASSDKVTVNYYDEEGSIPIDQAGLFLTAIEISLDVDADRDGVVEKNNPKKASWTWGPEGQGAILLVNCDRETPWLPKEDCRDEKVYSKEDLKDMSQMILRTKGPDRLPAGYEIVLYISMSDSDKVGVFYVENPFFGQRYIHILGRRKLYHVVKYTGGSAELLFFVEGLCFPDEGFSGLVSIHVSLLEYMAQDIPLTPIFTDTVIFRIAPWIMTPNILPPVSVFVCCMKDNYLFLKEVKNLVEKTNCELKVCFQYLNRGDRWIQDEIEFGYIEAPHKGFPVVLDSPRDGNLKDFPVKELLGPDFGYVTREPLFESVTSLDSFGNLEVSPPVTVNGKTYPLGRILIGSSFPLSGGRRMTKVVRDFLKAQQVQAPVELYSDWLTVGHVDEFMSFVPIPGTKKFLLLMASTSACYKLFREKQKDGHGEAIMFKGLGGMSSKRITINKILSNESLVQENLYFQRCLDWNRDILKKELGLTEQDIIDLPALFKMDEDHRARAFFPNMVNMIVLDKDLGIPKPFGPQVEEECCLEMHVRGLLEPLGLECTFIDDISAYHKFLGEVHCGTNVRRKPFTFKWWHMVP

SMILES	kinact/KI (PAD1) [M⁻¹ s⁻¹]	Fold PAD1 Selectivity (PAD1) [fold]	kinact/KI (PAD2) [M⁻¹ s⁻¹]	Fold PAD2 Selectivity (PAD2) [fold]	kinact/KI (PAD3) [M⁻¹ s⁻¹]	Fold PAD3 Selectivity (PAD3) [fold]	kinact/KI (PAD4) [M⁻¹ s⁻¹]	Fold PAD4 Selectivity (PAD4) [fold]	Ki (PAD2) [µM]	kinact (PAD2) [s⁻¹]
CCn1c([C@H](CCCNC(=N)CCl)NC(=O)c2cccc3c2C(=O)NC3)nc2ccccc21 [Compound 7f, N1-(3-oxoisoindoline)benzol-N5-(2-chloro-1-iminoethyl)-1-(1-ethyl-benzo[d]imidazol-2-yl)-L-ornithine]	2200	10	1010	4.8	377	1.8	210	1.0		
CC(C)n1c([C@H](CCCNC(=N)CF)NC(=O)c2cccc3c2C(=O)NC3)nc2ccccc21 [Compound 7g, N1-(3-oxoisoindoline)benzol-N5-(2-fluoro-1-iminoethyl)-1-(1-isopropyl-benzo[d]imidazol-2-yl)-L-ornithine]	104	12	172	20	8.5	1.0	20.5	2.4		
CC(C)n1c([C@H](CCCNC(=N)CCl)NC(=O)c2cccc3c2C(=O)NC3)nc2ccccc21 [Compound 7h, N1-(3-oxoisoindoline)benzol-N5-(2-chloro-1-iminoethyl)-1-(1-isopropyl-benzo[d]imidazol-2-yl)-L-ornithine]	960	27	282	8.0	112	3.2	35	1.0		
COc1cccc2[nH]c([C@H](CCCNC(=N)CF)NC(=O)c3cccc4c3C(=O)NC4)nc12 [Compound 7i, N1-(3-oxoisoindoline)benzol-N5-(2-fluoro-1-iminoethyl)-1-(4-methoxy-1H-benzo[d]imidazol-2-yl)-L-omithine]	1530	42	292	8.0	138	3.8	36.3	1.0		
COc1cccc2[nH]c([C@H](CCCNC(=N)CCl)NC(=O)c3cccc4c3C(=O)NC4)nc12 [Compound 7j, N1-(3-oxoisoindoline)benzoyl-N5-(2-chloro-1-iminoethyl)-1-(4-methoxy-1H-benzo[d]imidazol-2-yl)-L-ornithine]	2180	30	802	11	502	6.9	72.3	1.0		
COc1cccc2c1nc([C@H](CCCNC(=N)CF)NC(=O)c1cccc3c1C(=O)NC3)n2C [Compound 7k, N1-(3-oxoisoindoline)benzoyl-N5-(2-fluoro-1-iminoethyl)-1-(4-methoxy-1-methyl-benzo[d]imidazol-2-yl)-L-ornithine]	2150	29	3500	47	73.8	1.0	238	3.2	16.5	0.0578
COc1cccc2c1nc([C@H](CCCNC(=N)CCl)NC(=O)c1cccc3c1C(=O)NC3)n2C [Compound 7l, N1-(3-oxoisoindoline)benzoyl-N5-(2-chloro-1-iminoethyl)-1-(4-methoxy-1-methyl-benzo[d]imidazol-2-yl)-L-ornithine]	1300	3.9	1300	3.9	332	1.0	422	1.3		

Now from value to compound:

kinact/KI (PAD1) [M⁻¹ s⁻¹]	Fold PAD1 Selectivity (PAD1) [fold]	kinact/KI (PAD2) [M⁻¹ s⁻¹]	Fold PAD2 Selectivity (PAD2) [fold]	kinact/KI (PAD3) [M⁻¹ s⁻¹]	Fold PAD3 Selectivity (PAD3) [fold]	kinact/KI (PAD4) [M⁻¹ s⁻¹]	Fold PAD4 Selectivity (PAD4) [fold]	Ki (PAD2) [µM]	kinact (PAD2) [s⁻¹]	SMILES
1070	65	1570	95	20	1.2	16.5	1.0	55.2	0.0868	CCOc1cccc2c1nc([C@H](CCCNC(=N)CF)NC(=O)c1cccc3c1C(=O)NC3)n2C [Compound 7m]
982	24	1200	30	108	2.7	40.2	1.0			CCOc1cccc2c1nc([C@H](CCCNC(=N)CCl)NC(=O)c1cccc3c1C(=O)NC3)n2C [Compound 7n]
2080	121	1960	114	17.2	1.0	20.5	1.2	20.7	0.0403	COc1ccc2c(c1)nc([C@H](CCCNC(=N)CF)NC(=O)c1cccc3c1C(=O)NC3)n2C [Compound 7o, N1-(3-oxoisoindoline)benzoyl-N5-(2-fluoro-1-iminoethyl)-1-(5-methoxy-1-methyl-benzo[d]imidazol-2-yl)-L-ornithine]
2210	25	908	10	218	2.4	90.2	1.0			COc1ccc2c(c1)nc([C@H](CCCNC(=N)CCl)NC(=O)c1cccc3c1C(=O)NC3)n2C [Compound 7p, N1-(3-oxoisoindoline)benzoyl-N5-(2-chloro-1-iminoethyl)-1-(5-methoxy-1-methyl-benzo[d]imidazol-2-yl)-L-ornithine]
998	38	845	32	26.7	1.0	26.3	1.0			CCn1c([C@H](CCCNC(=N)CF)NC(=O)c2cccc3c2C(=O)NC3)nc2c(OC)cccc21 [Compound 7q, N1-(3-oxoisoindoline)benzoyl-N5-(2-fluoro-1-iminoethyl)-1-(4-methoxy-1-ethyl-benzo[d]imidazol-2-yl)-L-ornithine]
1790	50	657	19	103	2.9	35.5	1.0			CCn1c([C@H](CCCNC(=N)CCl)NC(=O)c2cccc3c2C(=O)NC3)nc2c(OC)cccc21 [Compound 7r, N1-(3-oxoisoindoline)benzoyl-N5-(2-chloro-1-iminoethyl)-1-(4-methoxy-1-ethyl-benzo[d]imidazol-2-yl)-L-ornithine]
974	13	415	5.4	76.2	1.0	264	3.5			COc1ccc2[nH]c([C@H](CCCNC(=N)CF)NC(=O)c3cccc4c3C(=O)NC4)nc2c1 [Compound 7s, N1-(3-oxoisoindoline)benzoyl-N5-(2-fluoro-1-iminoethyl)-1-(5-methoxy-1H-benzo[d]imidazol-2-yl)-L-ornithine]
